The record followed here is patent publication US4071528A, “Certain thiazolidine and tetrahydrothiazine compounds” (May & Baker Limited, priority 1975, dated 1978).

Where two headings read alike, the source gives them in different places.

Data set [1] has as its system Nippostrongylus brasiliensis. Briefly: Activity against roundworms in rats, A.1: treatment 6 days after infection (patent infection), post-mortem worm counts. The following applies: 48 h, treated 6 days after infection, read-out: % Reduction of mean worm load. In kind it is in vivo. How it is done:
In the Tables of results "s.c." means subcutaneous and the doses are expressed in mg/kg animal body weight. […] A.1. Rats were infected with 100 Nippostrongylus brasiliensis larvae each, by the subcutaneous route. After 6 days, when the infection was patent, the rats were randomised and allotted to groups of 5 animals each, ready for treatment. One group was used for each dose level of the test compound, which was administered by the oral or subcutaneous route, and in each experiment, one group of 10 animals was left untreated as a control. All the rats were killed for post-mortem worm counts 48 hours after treatment. The activities, expressed in terms of the percentage reduction in mean worm load of the treated groups compared with the untreated group, are shown in Table I.

Data set [2] deals with Nippostrongylus brasiliensis. Nature of the data set: Activity against roundworms in rats, A.2: treatment 24 hours after infection, post-mortem worm counts. In kind it is in vivo. The following applies: 144 h, treated 24 hours after infection, read-out: % Reduction of mean worm load. The procedure:
In the Tables of results "s.c." means subcutaneous and the doses are expressed in mg/kg animal body weight. […] A.2. Rats were infected with 100 Nippostrongylus brasiliensis larvae each, by the subcutaneous route. After 24 hours the rats were randomised and allotted to groups of 5 animals each, ready for treatment. Doses of the test compound were then administered to each group by the oral or subcutaneous route, one group of 10 animals being left untreated as a control. All the rats were killed for post-mortem worm counts 6 days after dosing. The activities, expressed in terms of the percentage reduction in mean worm load of the treated groups compared with the untreated control group, are given below in Table II.

Data set [3] relates to Cooperia oncophora and Ostertagia ostertagi. Nature of the data set: C.1 Activity against Cooperia oncophora and Ostertagia ostertagi in their adult stages in calves, faecal egg counts. In kind it is in vivo. The following applies: s.c. (methanesulphonate salt). The procedure:
In the Tables of results "s.c." means subcutaneous and the doses are expressed in mg/kg animal body weight. […] C.1. Activity against Cooperia oncophora and Ostertagia ostertagi in their adult stages in calves. Worm-free, 6-7 week old calves were each infected with 15,000 C. oncophora and 15,000 O. ostertagi larvae. Approximately 3 weeks later, doses of the test compound were administered to each group of 2 animals by the subcutaneous route, one group of two animals being left untreated as a control. Individual faecal egg counts were determined 1 day before treatment and 5-7 days after treatment.

The nature of data set [4]: Oral acute toxicity (LD50) in mice. The following applies: mouse, in vivo, observed during next 6 days. The text has this:
Mice were each treated orally with one of the compounds of formula I, and they were observed during the next 6 days. The LD50 figures obtained (doses lethal to 50% of mice tested) are shown in Table VII, expressed in mg/kg animal body weight.

Another data set concerns Mycosphaerella pinodes. Briefly: Minimum effective concentration totally inhibiting fungal growth, Mycosphaerella pinodes, potato dextrose agar tubes. In kind it is cell-based. The following applies: Didymella pinodes, 48 h; total inhibition of fungal growth; tested at 50, 10 or 2 ppm; 25° C, 2 days. The procedure:
Test tubes containing 4.0 ml of molten potato dextrose agar at about 50° C were inoculated with 0.5 ml of suspension of test compound and 0.5 ml of fungal suspension delivered from a sterile syringe to give a final concentration of each compound of 50, 10 or 2 ppm. Two replicate tubes were inoculated with each fungal species. After the addition of test compounds and fungal inoculum to the molten medium the tubes were sloped and the agar was allowed to set. The tubes were incubated at 25° C for either 2 days (Mycosphaerella pinodes) or 3 days (Helminthosporium avenae). […] The suspensions of test compounds were prepared by grinding 0.025 g of test compound with sterile distilled water containing 0.1 ml of 0.1% Texofor FX170 wetting agent, followed by dilution to the concentration desired. The inoculum of Mycosphaerella pinodes was prepared as follows: A one to two week old culture on Coon's agar on plates was scraped off with a glass rod and sterile distilled water and filtered through muslin. The filtrate, containing the spores, was used for inoculation.

In the next data set the test system is Fasciola hepatica. Nature of the data set: D. Activity against mature and immature liver flukes in sheep. In kind it is in vivo. The conditions noted are these: oral 25 mg/kg in gelatin capsules; for Mean % Reduction, Immature flukes: immature flukes in rest of liver; for Mean % Reduction, Mature flukes: mature flukes in bile ducts. The procedure:
D. Activity against mature and immature liver flukes in sheep On the first day of the experiment a group of sheep were each infected with 300 metacercariae of liver fluke Fasciola hepatica and on the 56th day they were each infected with a further 300 metacercariae of F. hepatica. On day 70 of the experiment, doses of the test compounds of 25 mg/kg animal body weight were administered orally in gelatin capsules to groups of two animals per compound. One group of two animals was left untreated as controls. On day 98 of the experiment, all the sheep were killed. The number of mature flukes present in the bile ducts and the numbers of immature flukes present in the rest of the liver were counted. The activities, expressed in terms of the percentage reduction in mean fluke burdens compared with the untreated controls, are shown below in Table VI.

Where [5] appears, read: sc, s.c. (methanesulphonate salt, aqueous).

In the case of `CCCSc1ccc(N2C(=O)CSC2=NC(=O)OC)c(NC(=O)CN(C)C)c1` [K, 3-[2-(2-dimethylaminoacetamido)-4-n-propylthiophenyl]-2-methoxycarbonyliminothiazolidin-4-one], the inhibition in vivo at 50 mg/kg was 99% in data set [1] (oral), 96% in data set [1] (setting [5]), 97% in data set [2] (oral) and 98% in data set [2] (setting [5]). Besides, the figures for the inhibition in vivo at 3.125 mg/kg in data set [2] (oral) and in data set [2] (setting [5]) were 92% and 96%, respectively. The “% Reduction of mean egg count” value in data set [3] (15 mg/kg) is on record as 85%. Also, the LD50 at 144 h in data set [4] is > 1000 mg/kg.

With `CCCCCSc1ccc(N2C(=O)CSC2=NC(=O)OC)c(NC(=O)CN(C)C)c1` [J, 3-[2-(2-dimethylaminoacetamido)-4-n-pentylthiophenyl]-2-methoxycarbonyliminothiazolidin-4-one], the inhibition in vivo at 100 mg/kg was determined as 59% in data set [1] (oral), 99% in data set [2] (oral) and 99% in data set [2] (setting [5]). The inhibition in vivo at 50 mg/kg in data set [2] (oral) and in data set [2] (setting [5]) was 99% in each case. Besides, the LD50 at 144 h in data set [4] was > 1000 mg/kg.

As for `C=CCSc1ccc(N2C(=O)CSC2=NC(=O)OC)c(NC(=O)CN(C)C)c1` [B, 3-[4-allylthio-2-(2-dimethylaminoacetamido)phenyl]-2-methoxycarbonyliminothiazolidin-4-one], the inhibition in vivo at 100 mg/kg in data set [1] (oral) was found to be 97%; in data set [1] (setting [5]) it was 90%. For the same compound, the inhibition in vivo at 50 mg/kg came to 98% in data set [2] (oral) and 97% in data set [2] (setting [5]). Moreover, in data set [3] (15 mg/kg), the “% Reduction of mean egg count” value is listed as 44%. For the same compound, the LD50 at 144 h in data set [4] was > 1000 mg/kg.

In the case of `COC(=O)N=C1SCC(=O)N1c1ccc(SC2CCCC2)cc1NC(=O)CN(C)C` [I, 3-[4-cyclopentylthio-2-(2-dimethylaminoacetamido)phenyl]-2-methoxycarbonyliminothiazolidin-4-one], in data set [2] (oral), the inhibition in vivo at 25 mg/kg is 97% and the inhibition in vivo at 100 mg/kg is 96%. In data set [2] (setting [5]), the inhibition in vivo at 25 mg/kg came out at 87% and the inhibition in vivo at 100 mg/kg was found to be 99%. Besides, the LD50 at 144 h in data set [4] was > 1000 mg/kg.

Consider `COC(=O)N=C1SCC(=O)N1c1ccc(SCC2CCCCC2)cc1NC(=O)CN(C)C` [F, 3-[4-cyclohexylmethylthio-2-(2-dimethylaminoacetamido)phenyl]-2-methoxycarbonyliminothiazolidin-4-one], for which the inhibition in vivo at 100 mg/kg in data set [2] (oral) stood at 59%; in data set [2] (setting [5]), 46%. The “% Reduction of mean egg count” value in data set [3] (25 mg/kg) was found to be 50%.

As for `COC(=O)N=C1SCC(=O)N1c1cc(Sc2ccccc2)ccc1NC(=O)CN(C)C` [Compound E, 3-[2-(2-dimethylaminoacetamido)-5-phenylthiophenyl]-2-methoxycarbonyliminothiazolidin-4-one], the inhibition in vivo at 100 mg/kg in data set [1] (oral) was 65%; in data set [1] (setting [5]) it was 54%. Also, the inhibition in vivo at 50 mg/kg in data set [2] (oral) was determined as 95%; in data set [2] (setting [5]), 99%. For the same compound, the “% Reduction of mean egg count” value in data set [3] (15 mg/kg) is reported as 100%. The LD50 at 144 h in data set [4] is > 1000 mg/kg. Besides, the MIC against Mycosphaerella pinodes is < 2 µg/mL.

For the compound `COC(=O)N=C1SCC(=O)N1c1ccc(Sc2ccccc2)cc1NC(=O)CCN(C)C` [L, 3-[2-(3-dimethylaminopropionamido)-4-phenylthiophenyl]-2-methoxycarbonyliminothiazolidin-4-one], the inhibition in vivo at 100 mg/kg in data set [1] (oral) turned out to be 90%. Moreover, the inhibition in vivo at 50 mg/kg in data set [2] (oral) worked out at 81%; in data set [2] (setting [5]), 90%. Also, the “% Reduction of mean egg count” value in data set [3] (15 mg/kg) was determined as 84%. In addition, in data set [4], the LD50 at 144 h was > 1000 mg/kg.

Take `CCN(CC)CC(=O)Nc1cc(Sc2ccccc2)ccc1N1C(=O)CSC1=NC(=O)OC` [Compound D, 3-[2-(2-diethylaminoacetamido)-4-phenylthiophenyl]-2-methoxycarbonyliminothiazolidin-4-one]: the inhibition in vivo at 100 mg/kg in data set [1] (oral) was 99%. The inhibition in vivo at 100 mg/kg in data set [1] (setting [5]) was 88%. Besides, in data set [2] (oral), the inhibition in vivo at 12.5 mg/kg is 96% and the inhibition in vivo at 50 mg/kg was 98%. In data set [2] (setting [5]), the inhibition in vivo at 25 mg/kg turned out to be 96% and the inhibition in vivo at 50 mg/kg is 100%. Besides, the “% Reduction of mean egg count” value in data set [3] (15 mg/kg) is 98%. In addition, in the data set with Fasciola hepatica, the “Mean % Reduction, Immature flukes” value is on record as 75% and the “Mean % Reduction, Mature flukes” value is listed as “less than 50%”. For the same compound, in data set [4], the 50% lethal dose (LD50) at 144 h was > 1000 mg/kg.

Take `CCSc1ccc(N2C(=O)CSC2=NC(=O)OC)c(NC(=O)CN(C)C)c1` [C, 3-[4-ethylthio-2-(2-dimethylaminoacetamido)phenyl]-2-methoxycarbonyliminothiazolidin-4-one]: the inhibition in vivo at 100 mg/kg in data set [1] (oral) stood at 74%. The inhibition in vivo at 100 mg/kg in data set [1] (setting [5]) was determined as 89%. Further, in data set [2] (oral), the inhibition in vivo at 12.5 mg/kg stood at 81% and the inhibition in vivo at 50 mg/kg was 90%. In data set [2] (setting [5]), the inhibition in vivo at 12.5 mg/kg stood at 86% and the inhibition in vivo at 50 mg/kg amounted to 98%. The “% Reduction of mean egg count” value in data set [3] (15 mg/kg) was determined as 100%. In the data set on Fasciola hepatica, the “Mean % Reduction, Immature flukes” value is listed as 85% and the “Mean % Reduction, Mature flukes” value was found to be 72%. Further, the LD50 at 144 h in data set [4] is > 1000 mg/kg.

Turning to `CCCCSc1ccc(N2C(=O)CSC2=NC(=O)OC)c(NC(=O)CN(C)C)c1` [G, 3-[4-n-butylthio-2-(2-dimethylaminoacetamido)phenyl]-2-methoxycarbonyliminothiazolidin-4-one], the inhibition in vivo at 100 mg/kg in data set [1] (oral) is 96%; in data set [1] (setting [5]), 84%. Moreover, the inhibition in vivo at 12.5 mg/kg was 95% in data set [2] (oral) and 96% in data set [2] (setting [5]). The inhibition in vivo at 50 mg/kg in data set [2] (oral) was 98%; in data set [2] (setting [5]) it was 100%. The LD50 at 144 h in data set [4] was > 1000 mg/kg.
